Source: US20250057913A1, “USE OF SOMATOSTATIN AGONIST IN THE TREATMENT OF SSTR3 EXPRESSING TUMORS” (ITALFARMACO SPA, priority 2021, published 2025)

Columns and labels:
[1] = test system: pentobarbital-induced GH release; assay: pentobarbital-induced GH release in rats; type: in vivo, rat
SSTR5 = SSTR5 (Homo sapiens, UniProt P35346)
Description: (§1) Therefore, G protein-signaling mediated by SSTR agonists was studied using a GIRK-based fluorescence membrane potential assay both in HEK293 cells transfected with hSSTR3, and in AtT20 wild-type as well as hSSTR3-transfected cells.

SSTR2 [2] = target: T1, SSTR2 (Homo sapiens, UniProt P30874); assay: SSTR2 phosphorylation in HEK293 transfected cells (phosphosite-specific antibodies); type: cell-based; parameters: expressed in transfected cells; details: 10 or 1 μM, 10 min at 37° C.
T1 sequence (P30874 whole entry): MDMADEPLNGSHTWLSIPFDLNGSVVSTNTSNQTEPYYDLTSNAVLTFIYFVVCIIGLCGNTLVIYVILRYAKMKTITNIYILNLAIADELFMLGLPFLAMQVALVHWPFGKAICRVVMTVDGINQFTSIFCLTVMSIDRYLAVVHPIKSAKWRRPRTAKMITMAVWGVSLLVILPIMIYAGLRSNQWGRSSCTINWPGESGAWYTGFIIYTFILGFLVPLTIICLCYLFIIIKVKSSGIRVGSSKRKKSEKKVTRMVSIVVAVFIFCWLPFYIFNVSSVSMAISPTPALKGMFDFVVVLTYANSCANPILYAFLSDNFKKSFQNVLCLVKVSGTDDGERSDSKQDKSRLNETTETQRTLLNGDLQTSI
Experimental: (A) Schematic representation of the human SSTR2 receptor indicating all potential phosphate acceptor sites within the carboxyl-terminal tail. Epitopes of the phosphosite-specific antibodies are marked (-P). […] The levels of phosphorylated SSTR2 receptor were then determined using the phosphosite-specific anti-pS341/pS343, pT353/T354, pT356/T359 antibodies. […] Blots shown are representative of three independent experiments. The positions of molecular mass markers are indicated on the left (in kDa).

SSTR2 [3] = target: T1, SSTR2; assay: cell-based; parameters: expressed in transfected cells; host or cells: HEK293 co-expressing GIRK2-GFP
Description: as §1

SSTR3 = SSTR3 (Homo sapiens, UniProt P32745); assay: GIRK-based fluorescence membrane potential assay, HEK293-GIRK2-GFP-HA-hSST3
Sequence of SSTR3 (P32745 whole entry): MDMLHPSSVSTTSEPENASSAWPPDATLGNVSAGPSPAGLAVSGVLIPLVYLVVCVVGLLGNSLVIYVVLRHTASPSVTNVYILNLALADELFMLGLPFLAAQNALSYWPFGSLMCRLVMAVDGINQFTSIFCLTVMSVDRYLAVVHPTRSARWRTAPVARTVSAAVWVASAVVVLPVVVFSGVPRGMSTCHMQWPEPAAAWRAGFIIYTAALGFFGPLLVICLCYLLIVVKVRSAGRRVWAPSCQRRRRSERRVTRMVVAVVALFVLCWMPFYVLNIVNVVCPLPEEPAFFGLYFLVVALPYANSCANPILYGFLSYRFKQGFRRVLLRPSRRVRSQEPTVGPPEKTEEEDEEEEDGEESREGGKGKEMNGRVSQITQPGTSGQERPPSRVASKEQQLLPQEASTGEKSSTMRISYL
Description: The concentrations used are indicated. […] Data points represent mean±S.E.M.
as §1

SSTR5-tGFP = SSTR5-tGFP (Homo sapiens, UniProt P35346); assay: Internalization of SSTR5 in U2OS transfected cells; type: cell-based; parameters: expressed in transfected cells; host or cells: U2OS
Sequence of SSTR5-tGFP (P35346 whole entry): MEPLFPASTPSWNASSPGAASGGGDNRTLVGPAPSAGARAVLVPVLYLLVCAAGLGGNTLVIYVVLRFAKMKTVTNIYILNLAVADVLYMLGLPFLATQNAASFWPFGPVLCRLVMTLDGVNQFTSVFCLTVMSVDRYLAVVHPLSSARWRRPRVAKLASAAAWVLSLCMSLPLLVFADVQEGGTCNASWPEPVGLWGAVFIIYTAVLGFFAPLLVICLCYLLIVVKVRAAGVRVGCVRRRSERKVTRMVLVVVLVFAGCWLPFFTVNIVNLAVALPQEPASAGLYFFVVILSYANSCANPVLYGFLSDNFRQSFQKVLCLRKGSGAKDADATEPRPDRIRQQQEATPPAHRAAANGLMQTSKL
Description: HEK293 cells transfected with human SSTRs, and U20S cells transfected with human GFP-tagged receptors (SSTR2-tGFP, SSTR3-tGFP, SSTR5-tGFP).

Sequence of SSTR5 (P35346 whole entry): as above

For `COc1cc2cccc(OC)c2cc1C[C@H]1NC(=O)[C@H](Cc2ccc(O)cc2)NC(=O)[C@@H]2C[C@@H](OC(=O)NCCN)CN2C(=O)[C@H](Cc2ccccc2)NC(=O)[C@H](Cc2ccc(OCc3ccccc3)cc2)NC(=O)[C@H](CCCCN)NC1=O` [ITF2984, (3S,6R,9S,12S,15S,19R,20aS)-9-(4-aminobutyl)-15-benzyl-12-(4-(benzyloxy)benzyl)-6-((3,8-dimethoxynaphthalen-2-yl)methyl)-3-(4-hydroxybenzyl)-1,4,7,10,13,16-hexaoxoicosahydropyrrolo[1,2-a][1,4,7,10,13,16]hexaazacyclooctadecin-19-yl (2-aminoethyl)carbamate], which “pentobarbital-induced GH release” value [1] is on record?
The value was “inhibited pentobarbital-induced GH release”.

And the EC50 (SSTR5)?
The EC50 was 95.1 ± 15.2 nM.

And the “phosphorylation of SSTR2 (pS341/pS343, pT353/T354, pT356/T359)” value (SSTR2 [2])?
The value was “selective phosphorylation of S341/S343”.

And the EC50 (SSTR2 [3])?
Its EC50 is 312 ± 29.3 nM.

And the EC50 (SSTR3)?
The EC50 was 10.7 ± 1.7 nM.

What about the “G-protein signaling potency at SSTR3 versus Octreotide or Pasireotide” value (SSTR3; more potent than Octreotide or Pasireotide) of the same compound?
The value was “about 5 times”.

What about the “Mean of internalized fluorescence, SSTR5” value (SSTR5-tGFP; 1 μM) of the same compound?
Its value is 34.6 AU.

What about the “Mean of internalized fluorescence, SSTR5” value (SSTR5-tGFP; 10 μM) of the same compound?
The value was 42.0 AU.
